One compound from patent publication US20230292776A1, “GAS PHASE TREATMENT OF PRODUCE” (priority 2022, published 2023) can be followed below.

Test [1] deals with Penicillium digitatum (Pd). Nature of the test: Antifungal activity of vapor against Penicillium digitatum (Pd) in wounded, infected mandarins. As to conditions: for effect on Pd mold: Example 5, assessed after 6 days; for infected mandarins: Example 6. The test is classed as in vivo.
For test [2], the system named is Botrytis cinerea (Bc). Nature of the test: Antifungal activity of AITC vapor and coating agent against Botrytis cinerea (Bc) in strawberries. It is filed as in vivo. The following applies: 30 minutes. The protocol:
Example 13. The antifungal activity of AITC vapor against Bc in strawberries was tested. All samples were wounded by making a 3 mm deep puncture in the skin. Samples were infected by dispensing 1000 Bc spores suspended in 10 μL of water in the wound. Samples were then incubated at ambient temperature, imaged, and assessed for mold over the following 3 days. The test group consisted of strawberries that were: uninfected and untreated; infected and untreated; and exposed for 30 minutes to the vapor of 125 uL AITC dispensed on Whatman filter paper. […] The infection rates in the initially uninfected sample indicate that the step involving the initial infection of the wound by dispensing the Bc spores may not be necessary to promote infection in the test groups.
Example 14. The antifungal activity of a range of AITC vapor concentrations against Bc in strawberries was tested. Samples were treated by exposure for 30 minutes to the vapor of a range of volumes of AITC disposed on a filter paper disc, then incubated at ambient temperature, imaged, and assessed for mold over the following 6 days. Test groups consisted of strawberries that were untreated and strawberries exposed to the vapor of 62.5 μL, 125 μL, 250 μL, and 500 μL of AITC. […] On day 6, 83% of the untreated control strawberries were infected, 100% of the 62.5 μL AITC dose strawberries were infected, 13% of the 125 μL AITC dose strawberries were infected, and 0% of the 250 and 500 μL AITC dose strawberries were infected. For strawberries incubated at room temperature, all of the AITC doses above 62.5 μL were effective at preventing mold, with doses above 125 μL substantially eliminating mold.
Example 15. The antifungal activity of AITC vapor under different exposure conditions against Bc in strawberries was tested. Test groups consisted of strawberries that were untreated and treated by exposure for 30 minutes to the vapor of 125 μL of AITC disposed on a filter paper disc. Test groups were then incubated in either open or closed containers at 4° C., imaged, and assessed for mold over the following 14 days. […] All samples were free of mold through 7 days. On day 12, 16.7% of the open air controls were infected, 29.2% of closed container controls were infected, and 0% of the AITC treated were infected. On day 14, 33.3% of the open air controls were infected, 41.7% of closed container controls were infected, 0% of the open air AITC treated were infected, and 4.2% of the closed container AITC treated were infected. For strawberries incubated at 4° C., AITC treatment was effective in reducing the incidence of mold over a two week period. While ⅓ of the open air untreated samples were infected, none of the open air AITC-treated were infected. Over 40% of the closed container controls were infected. A single strawberry was infected in the closed container AITC-treated test group.
Example 16. The antifungal activity of AITC vapor against Bc in strawberries treated with a coating agent (95 wt % glyceryl monostearate and 5 wt % sodium stearate) and exposed to vapor in clamshells was tested. Test groups consisted of strawberries that were: untreated; dipped in 40 g/L solution of the coating agent; exposed for 30 minutes to the vapor of 125 μL of AITC disposed on a filter paper disc; and dipped in 40 g/L solution of the coating agent and exposed for 30 minutes to the vapor of 125 μL of AITC disposed on a filter paper disc. Samples were treated, incubated at ambient temperature, imaged, and assessed for mold over the following 4 days. […] On day 3, 52.8% of the controls were infected, 42.1% of the coating agent were infected, 26.3% of the AITC were infected, and 9.3% of the coating agent+AITC were infected. On day 4, 88.9% of the controls were infected, 76.3% of the coating agent were infected, 71% of the AITC were infected, and 34.9% of the coating agent+AITC were infected. […] Bowl dipping in the coating solution also presented challenges for drying around the calyx.
Example 17. […]

On to `C=CCN=C=S` [AITC, allyl isothiocyanate], for which the “inhibition of fungal growth (Pd)” value in test [1] (Example 2, mandarins, 72 hours vapor of 3 mL) is reported as “approximately 100%”. For the same compound, the Pd mold growth entry in test [1] (Example 4, doses of 125 μL, 250 μL & 500 μL, airtight container, 18 hours, 6 days) is “substantially prevented the growth mold”. Also, the “effect on Pd mold” value is “greatly reduced severity of Pd mold infection” in test [1] (125 μL (730 ppm), 30 min exposure); “greatly reduced severity and incidence of Pd mold” in test [1] (125 μL, 1 hour exposure). The infected mandarins in test [1] (125 μL, 30 minutes, treated after 24 hours) worked out at 8.3%; in test [1] (125 μL, 30 minutes, treated after 48 hours), 25%; in test [1] (125 μL, 30 minutes, treated after 72 hours) it was 16.7%; in test [1] (125 μL, 30 minutes, treated after 96 hours), 81.6%; in test [1] (125 μL, 30 minutes, treated immediately after infection (0 hours)), 58.3%. In addition, the “effect on Pd infection at lower dose” value in test [1] (Example 19, 62.5 μL (50% of the minimum inhibitory concentration), 30 minutes) is listed as “tends to reduce the severity of infection, but not eliminate the incidence of infection”. Further, the “visible mold on strawberries” value in test [2] (Example 13, 125 uL, after 24 hours) is recorded as “no mold was visible”. In addition, the “fraction of samples showing visible mold” value in test [2] (Example 13, 125 uL, after 48 hours) is recorded as “⅛”; in test [2] (Example 13, 125 uL, after 72 hours), “¼”. In addition, the strawberries infected is recorded as 100% in test [2] (Example 14, 62.5 μL dose, day 6, ambient temperature); 13% in test [2] (Example 14, 125 μL dose, day 6, ambient temperature); 0% in test [2] (Example 14, 250 and 500 μL dose, day 6, ambient temperature); 4.2% in test [2] (Example 15, 125 μL, 4° C., closed container, day 14); 0% in test [2] (Example 15, 125 μL, 4° C., open air, day 14); 0% in test [2] (Example 15, 125 μL, incubated at 4° C., day 12). The strawberries infected in test [2] (Example 16, clamshells, coating agent 40 g/L dip, AITC 125 μL, day 3) is on record as 26.3%; in test [2] (Example 16, clamshells, coating agent 40 g/L dip, AITC 125 μL, day 4), 71%.
